Patent US20150344426A1, “COMPOUNDS AND THERAPEUTIC USES THEREOF” (ALZHEIMER'S INSTITUTE OF AMERICA, INC., priority 2012, published 2015)
“And” between values parts separate entries of the source, which are not always exact repeats. Identical values can stand only once. Like-named read-outs stand apart in the source and are kept apart here.

Tests used:
[1] = system: HT1080 human fibrosarcoma cancer cells; experiment: Anti-tumor activity in HT1080 human fibrosarcoma xenograft with twice daily dosing; format: in vivo; conditions: for tumor regression: by Day 8
Protocol: One million HT1080 cells were implanted subcutaneously in the right flank of female nude mice (Crl:NU-Fox1^nu). When the median tumor volume (MTV) was approximately 209 mm^3, mice were randomized into four cohorts of ten animals. […] All cohorts were dosed twice daily for 7 days. The mice were observed daily for mortality and signs of toxicity. Tumor volumes and body weights were determined from Days 1 to 22. The results are depicted in FIG. 4.

[2] = Experiment 1: hepatic portal vein samples of rats after oral Example Compound 35; format: in vivo, female Sprague-Dawley rats; conditions: 20 mg/kg, portal vein; for [Par. Cmp. A]: listed as Par. Cmp. A
Excerpt: It is believed that Example Compound 35 metabolizes in vivo into Parent Compound A (i.e., it is believed that Example Compound 35 is a prodrug of Parent Compound A). The objective of this study was to determine the concentration of Example Compound 35 and Parent Compound A in hepatic portal vein samples of female Sprague-Dawley rats following oral administration of only Example Compound 35, and to quantify the extent of transport into hepatic portal circulation, if any, of Example Compound 35. A second objective was to determine the relative bioavailability of Parent Compound A in the portal vein following oral administration of Example Compound 35.
Experiment 1. Three female Sprague Dawley rats (200-215 g, Harlan Laboratories, Indianapolis, Ind.) with cannulae implanted surgically in the portal vein for blood sampling were used in this study. Example Compound 35, formulated in 50 mM Glycine pH 3.0 with 0.5% HPMC and 0.05% Tween-80, was administered by oral gavage (PO) at a dose of 20 mg/kg in a volume of 2 mL/kg. This dose is the molar equivalent of a 13.5 mg/kg dose of Parent Compound A. Portal blood samples were collected through the portal vein cannula from each animal at 0.25, 0.5, 1, 2, 4, and 8 hours following administration of compound. Samples were split into two fractions and one was supplemented with citrate buffer (final concentration 100 mM, pH 3.0) to stabilize Example Compound 35 and stop conversion of Example Compound 35 to Parent Compound A ex vivo during analysis. Samples were then processed to generate plasma and analyzed for Example Compound 35 by LC-MS/MS. Plasma derived from the second aliquot of blood was analyzed for Parent Compound A.
Pharmacokinetic parameters estimated for Parent Compound A included the maximum observed drug concentration (Cmax), time of maximum observed drug concentration (Tmax), apparent terminal half-life (t1/2), area under the concentration-time curve from time zero to 8 hours postdose (AUC(0-8)), and area under the concentration-time curve extrapolated to infinity (AUC(0-inf)). The bioavailability (% F) of Parent Compound A in portal vein samples relative to IV administration was also estimated.
Plasma samples were analyzed for Example Compound 35 or Parent Compound A concentration using a LC-MS/MS method. All sample runs met standard acceptance criteria for discovery purposes, and were based on a standard curve containing at least 7 points. At least half of quality control samples at each of the three concentrations tested, and two thirds of the entire quality control sample pool, were within 15% of their theoretical value. The r^2 value for each standard curve was ≧0.99. The quantitation range for the Example Compound 35 and Parent Compound A assays was 1 to 100 ng/mL and 5 to 2,500 ng/mL, respectively, using a 0.05 mL sample volume.
The data were entered into the PK software package WinNonlin® version 5.1.1. A complete data check was conducted to verify the accuracy of data entry.
Pharmacokinetic parameters were estimated on median plasma concentrations using extravascular input (PO). Nominal collection times after administration of compound were used for PK analyses. The use of a non-compartmental model provided an adequate fit of the data. Pharmacokinetic parameters estimated for Parent Compound A included the maximum observed drug concentration (Cmax), time of maximum observed drug concentration (Tmax), apparent terminal half-life (t1/2), apparent volume of distribution (Vz obs), apparent clearance (C1 obs), area under the concentration-time curve from time zero to 8 hours postdose of Example Compound 35 […], and area under the concentration-time curve extrapolated to infinity (AUC(0-inf)). Example Compound 35 was detected in only one 0.25 hour hepatic portal vein sample at 1.29 ng/mL. Any Example Compound 35 present in all of the other samples was below the quantitation limit of 1 ng/mL and pharmacokinetic parameters were not determined for those samples. […]

O=C(NCc1cccnc1)Nc1ccc(OCCc2ccccc2-c2ccccc2)cc1 [Parent Compound A, 1-{4-[2-(Biphenyl-2-yl)ethoxy]phenyl}-3-(pyridin-3-ylmethyl)urea]
tumor growth inhibition relative to vehicle ([1]; 3 mg/kg orally twice daily for seven days, Day 21): 60% | MTV increase ([1]; 3 mg/kg orally twice daily for seven days, end of dosing, Day 9): 221% | MTV increase ([1]; 3 mg/kg orally twice daily for seven days, end of the study, Day 21): 622% | tumor growth inhibition relative to vehicle ([1]; 4 mg/kg orally twice daily for seven days, Day 21): 81% | tumor regression ([1]; 4 mg/kg orally twice daily for seven days): 13% | MTV as % of the initial value ([1]; 4 mg/kg orally twice daily for seven days, end of dosing, Day 9): 87% | MTV increase ([1]; 4 mg/kg orally twice daily for seven days, end of the study, Day 21): 296% | tumor growth inhibition relative to vehicle ([1]; 5 mg/kg orally twice daily for seven days, Day 21): 85% | tumor regression ([1]; 5 mg/kg orally twice daily for seven days): 22% | MTV as % of the initial value ([1]; 5 mg/kg orally twice daily for seven days, end of dosing, Day 9): 78% | MTV increase ([1]; 5 mg/kg orally twice daily for seven days, end of the study, Day 21): 235% | tumor growth inhibition relative to vehicle ([1]; 7 mg/kg orally twice daily for seven days, Day 21): 89% | tumor regression ([1]; 7 mg/kg orally twice daily for seven days): 78% | MTV as % of the initial value ([1]; 7 mg/kg orally twice daily for seven days, end of dosing, Day 9): 22% | MTV increase ([1]; 7 mg/kg orally twice daily for seven days, end of the study, Day 21): 175% | tumor growth inhibition relative to vehicle ([1]; 9 mg/kg orally twice daily for seven days, Day 21): 95% | tumor regression ([1]; 9 mg/kg orally twice daily for seven days): 61% | MTV as % of the initial value ([1]; 9 mg/kg orally twice daily for seven days, end of dosing, Day 9): 39% | MTV increase ([1]; 9 mg/kg orally twice daily for seven days, end of the study, Day 21): 85% | animals with tumor volumes exceeding 1,500 mm^3 euthanized ([1]; Parent Compound A study, 3 mg/kg, cohort of ten): three | deaths ([1]; Parent Compound A study, 4 mg/kg, cohort of ten, two found dead, one euthanized for tumor volume): three | animals with no detectable tumor by the end of the study ([1]; Parent Compound A study, 5 mg/kg, cohort of ten): One | animals with no detectable tumor by the end of the study ([1]; Parent Compound A study, 7 mg/kg, cohort of ten): One | animals with no detectable tumor by the end of the study ([1]; Parent Compound A study, 9 mg/kg, cohort of ten): One | anti-tumor activity in the HT1080 xenograft model (summary statement) ([1]; administered orally, twice daily, all doses tested): significant anti-tumor activity | maximal reduction in median body weight ([1]; over the course of the study, all doses tested, orally twice daily): < 10 % of the initial weight | Tolerability ([1]; xenograft mice, all doses tested, orally twice daily): well tolerated | concentration at 0.25 h ([2]; female, Sprague-Dawley, rat, plasma (hepatic portal vein), po, 0.25 hr after oral Example Compound 35 20 mg/kg, read-out: Median [Par. Cmp. A]): 961 ng/mL | concentration at 0.5 h ([2]; female, Sprague-Dawley, rat, plasma (hepatic portal vein), po, 0.5 hr after oral Example Compound 35 20 mg/kg, read-out: Median [Par. Cmp. A]): 2820 ng/mL | concentration at 1 h ([2]; female, Sprague-Dawley, rat, plasma (hepatic portal vein), po, 1 hr after oral Example Compound 35 20 mg/kg, read-out: Median [Par. Cmp. A]): 2460 ng/mL | concentration at 2 h ([2]; female, Sprague-Dawley, rat, plasma (hepatic portal vein), po, 2 hr after oral Example Compound 35 20 mg/kg, individual rats, read-out: [Par. Cmp. A]): 1800 ng/mL | concentration at 2 h ([2]; female, Sprague-Dawley, rat, plasma (hepatic portal vein), po, 2 hr after oral Example Compound 35 20 mg/kg, read-out: Median [Par. Cmp. A]): 1930 ng/mL | concentration at 4 h ([2]; female, Sprague-Dawley, rat, plasma (hepatic portal vein), po, 4 hr after oral Example Compound 35 20 mg/kg, read-out: Median [Par. Cmp. A]): 1000 ng/mL | concentration at 8 h ([2]; female, Sprague-Dawley, rat, plasma (hepatic portal vein), po, 8 hr after oral Example Compound 35 20 mg/kg, read-out: Median [Par. Cmp. A]): 41 ng/mL | [Par. Cmp. A] ([2]; 0.25 hr after oral Example Compound 35 20 mg/kg, individual rats): 417.4 ng/mL and 2,306.7 ng/mL and 961.4 ng/mL | [Par. Cmp. A] ([2]; 0.5 hr after oral Example Compound 35 20 mg/kg, individual rats): 2,819.4 ng/mL and 2,818.9 ng/mL and 577.7 ng/mL | [Par. Cmp. A] ([2]; 1 hr after oral Example Compound 35 20 mg/kg, individual rats): 1,064.4 ng/mL and 2,455.1 ng/mL and 3,237.2 ng/mL | [Par. Cmp. A] ([2]; 2 hr after oral Example Compound 35 20 mg/kg, individual rats): 2,398.5 ng/mL and 1,930.2 ng/mL | [Par. Cmp. A] ([2]; 4 hr after oral Example Compound 35 20 mg/kg, individual rats): 1,004.3 ng/mL and 2,254.2 ng/mL and 177.4 ng/mL | [Par. Cmp. A] ([2]; 8 hr after oral Example Compound 35 20 mg/kg, individual rats): 41.0 ng/mL and 378.5 ng/mL and 15.9 ng/mL
